{"source": "patent US5856156A", "about": "“Microbial cholesterol dehydrogenase, process for its production and use” (Boehringer Mannheim GmbH, priority 1994, dated 1999)"}
{"system": "chol-DH", "experiment": "Variation of the redox mediators used, chol-DH activity by the HPLC method", "assay_type": "biochemical, Rhodococcus spec.", "parameters": "reference not given here", "details": "relative chol-DH activity with the mediator as artificial electron acceptor, 37° C., pH 7.0", "description": "The enzyme sample was purified as described in example 2a) and subsequently its property of converting cholesterol was evaluated with the following methods.\nAn enzyme test was used to determine the chol-DH activity by quantifying the cholestenone formed in which the enzyme reaction proceeded for a defined time period before it was stopped by adding a protein-denaturing agent. Afterwards the amount of product was determined and expressed as μmol per minute and volume unit of the enzyme solution (=volume activity) or weight unit of the protein (=specific activity).\nThe cholestenone formed was quantified by HPLC analysis after stopping the chol-DH reaction:\nOne unit is the enzyme activity which oxidizes 1 μmol cholesterol per minute to cholestenone under the test conditions (37° C., pH 7.0). In this case the chol-DH activity is derived from the difference between the cholestenone concentrations of the test mixture and the blank (see above). [formula]\nApart from methyl-1,4-benzoquinone other redox mediators are suitable as electron acceptors for chol-DH. The chol-DH activity was determined by the HPLC method. Various redox mediators are listed in Table 1 that can serve as artificial electron acceptors for chol-DH.", "units": {"chol-DH [%]": "%"}}
{"smiles": "O=C1C(Cl)=CC(=Nc2ccc(O)cc2)C=C1Cl", "note": "[2,6-dichlorophenol-indophenol]", "chol-DH [%]": 52}
{"smiles": "O=Nc1ccc(N(CCO)CCO)cc1", "note": "[N,N-bis-2(hydroxyethyl)p-nitrosoaniline]", "chol-DH [%]": 45}
{"smiles": "CN(C)c1ccc(N=O)cc1", "note": "[N,N-dimethy1-4-nitrosoaniline]", "chol-DH [%]": 95}
{"smiles": "CC1=CC(=O)C=CC1=O", "note": "[methyl-1,4-benzoquinone]", "chol-DH [%]": 100}
{"smiles": "O=C1C=CC(=O)C=C1", "note": "[p-benzoquinone]", "chol-DH [%]": 109}
{"smiles": "O=C1C(Cl)=C(Cl)C(=O)C(Cl)=C1Cl", "note": "[tetrachloro-p-benzoquinone]", "chol-DH [%]": 27}
